These results are taken from patent publication US5705504A, “Piperidine derivatives with PAF antagonist activity” (J. Uriach & Cia, S.A., priority 1994, dated 1998).

Molecules are shown by their SMILES.

Assay [1] relates to Platelet Aggregation Induced by PAF (platelet rich plasma). Nature of the assay: Inhibition of Platelet Aggregation Induced by PAF. The format is cell-based, male New Zealand rabbits. Particulars: rabbit platelet rich plasma, aggregation induced by C18-PAF (15 nM). The protocol:
Inhibition of Platelet Aggregation Induced by PAF.
Platelet rich plasma (PRP) was prepared by centrifuging the blood at 250 xg for 10 min. at 4° C. The PRP was diluted with platelet-poor plasma (PPP) obtained by further centrifuging at 3000 xg for 10 min. The platelet count was adjusted to 3×10^5cells/mm^3.

The next assay has as its system PAF-induced Hypotension. Put plainly: Inhibition of PAF-induced Hypotension in Normotensive Rats. Type of assay: in vivo, male Sprague-Dawley rats. Particulars: anesthetized normotensive rats, i.v. 3 min. before PAF (0.5 μg/Kg), dose inhibiting hypotension by 50%; for ED50: Rattus norvegicus, iv, 0.05 h, read-out: ID50 (the source's name). The protocol: Inhibition of PAF-induced Hypotension in Normotensive Rats.
Male Sprague-Dawley rats, weighing 180-220 g, were anesthetized with sodium pentobarbital (50 mg/Kg i.p.). Blood pressure was recorded from the left carotid artery using a Statham pressure transducer coupled to a Beckman R611 recorder. Right and left fernoral veins were catheterized to inject test compounds and PAF (0.5 μg/Kg). Test compounds were administered by intravenous injection (1 mL/Kg, dissolved in saline) 3 min. before PAF. Blood pressure was monitored and percent inhibition of PAF-induced hypotension with respect to controls was calculated.

In the case of `Cc1nc2cnccc2n1CC1CCN(C(=O)CC(c2ccccc2)c2ccccc2)CC1` [Compound 1, 1-[[1-(3,3-Diphenylpropionyl)-4-piperidyl]methyl]-1H-2-methylimidazo[4,5-c]pyridine], half-maximal inhibition in assay [1] (Oryctolagus cuniculus) (IC50) was put at 7.6 nM. The ED50 in the assay on PAF-induced Hypotension was 0.0086 mg/kg. `Cc1nc2cnccc2n1CC1CCN(C(=O)C=C(c2ccccc2)c2ccc([N+](=O)[O-])cc2)CC1` [Compound 16, cis and trans-1-[[1-[3-(4-Nitrophenyl)-3-phenylpropenoyl]-4-piperidyl]methyl]-1H-2-methylimidazo[4,5-c]pyridine]: in assay [1] (Oryctolagus cuniculus), half-maximal inhibition (IC50) required 9.2 nM. For the compound `Cc1nc2cnccc2n1CC1CCN(C(=O)/C=C(/c2ccccc2)c2ccc(N)cc2)CC1` [Compound 17a, cis-1-[[1-[3-(4-Aminophenyl)-3-phenylpropenoyl]-4-piperidyl]methyl]-1H-2-methylimidazo[4,5-c]pyridine], the IC50 in assay [1] was 18 nM. This compound registered an ID50 with PAF-induced Hypotension of 0.029 mg/kg.

`Cc1nc2cnccc2n1CC1CCN(C(=O)/C=C(\c2ccccc2)c2ccc(N)cc2)CC1` [Compound 17b, trans-1-[[1-[3-(4-Aminophenyl)-3-phenylpropenoyl]-4-piperidyl]methyl]-1H-2-methylimidazo[4,5-c]pyridine] came in with an IC50 in assay [1] of 5 nM. Besides, in the assay on PAF-induced Hypotension, the ID50 was in the range of 0.01 to 0.025 mg/kg. As for `Cc1nc2cnccc2n1CC1CCN(C(=O)CC(C)(O)c2ccccc2)CC1` (stereo not drawn) [Compound 21, 1-[[1-(3-Hydroxy-3-phenylbutanoyl)-4-piperidyl]methyl]-1H-2-methylimidazo[4,5-c]pyridine], the IC50 in assay [1] (Oryctolagus cuniculus) came out at 6.9 nM. For the same compound, the ED50 in the assay on PAF-induced Hypotension worked out at 0.043 mg/kg. In turn, `Cc1nc2cnccc2n1CC1CCN(C(=O)CC(C)c2ccc(N)cc2)CC1` (stereo not drawn) [Compound 23, 1-[[1-[3-(4-Aminophenyl)butanoyl]-4-piperidyl]methyl]-1H-2-methylimidazo[4,5-c]pyridine] registered an IC50 in assay [1] (Oryctolagus cuniculus) of 11 nM. In the case of `Cc1nc2cnccc2n1CC1CCN(C(=O)C=C(c2ccccc2)c2cccc(N)c2)CC1` [Compound 30, cis and trans-1-[[1-[3-(3-Aminophenyl)-3-phenylpropenoyl]-4-piperidyl]methyl]-1H-2-methylimidazo[4,5-c]pyridine], the ED50 in the assay on PAF-induced Hypotension came to 0.015 mg/kg. The compound `CCCC(CC(=O)N1CCC(Cn2c(C)nc3cnccc32)CC1)c1ccccc1` (stereo not drawn) [Compound 32, 1-[[1-(3-Phenylhexanoyl)-4-piperidyl]methyl]-1H-2-methylimidazo[4,5-c]pyridine] registered an IC50 in assay [1] (Oryctolagus cuniculus) of 11 nM. For the same compound, the ED50 in the assay on PAF-induced Hypotension was found to be 0.0079 mg/kg. Compound `CCOC(=O)[C@@H](NC(=O)N1CCC(Cn2c(C)nc3cnccc32)CC1)c1ccccc1` [Compound 39, (S)-1-[[1-[[N-(1-Ethoxycarbonyl-1-phenylmethyl)amino]carbonyl]-4-piperidyl]methyl]-1H-2-methylimidazo[4,5-c]pyridine] displayed an IC50 in assay [1] (Oryctolagus cuniculus) of 16 nM. `Cc1nc2cnccc2n1CC1CCN(C(=O)CC(C)c2ccccc2)CC1` (stereo not drawn) [Compound 40, 1-[[1-(3-Phenylbutanoyl)-4-piperidyl]methyl]-1H-2-methylimidazo[4,5-c]pyridine]: the concentration for half-maximal inhibition (IC50) in assay [1] (Oryctolagus cuniculus) was determined as 12 nM. Moreover, the ED50 in the assay with PAF-induced Hypotension came out at 0.033 mg/kg. The corresponding values for `Cc1nc2cnccc2n1CC1CCN(C(=O)CC(C)(C)c2ccccc2)CC1` [Compound 41, 1-[[1-(3-Methyl-3-phenylbutanoyl)-4-piperidyl]methyl]-1H-2-methylimidazo[4,5-c]pyridine] are 6.7 nM and 0.012 mg/kg. As to `Cc1nc2cnccc2n1CC1CCN(C(=O)CC(C)(C)c2ccc(N)cc2)CC1` [Compound 44, 1-[[1-[3-(4-Aminophenyl)-3-methylbutanoyl]-4-piperidyl]methyl]-1H-2-methylimidazo[4,5-c]pyridine], in assay [1] (Oryctolagus cuniculus), the IC50 is 19 nM. Take `Cc1nc2cnccc2n1CC1CCN(C(=O)CC(O)(c2ccccc2)C(F)(F)F)CC1` (stereo not drawn) [Compound 47]: the IC50 in assay [1] (Oryctolagus cuniculus) was found to be 36 nM. Further, in the assay with PAF-induced Hypotension, the ED50 was 0.013 mg/kg. On the same counts, the results for `Cc1nc2cnccc2n1CC1CCN(C(=O)N[C@H](C)c2ccccc2)CC1` [Compound 50, (R)-1-[[1-[(1-Phenylethylamino)carbonyl]-4-piperidyl]methyl]-1H-2-methylimidazo[4,5-c]pyridine] are 13 nM and 0.017 mg/kg. In turn, `Cc1nc2cnccc2n1CC1CCN(C(=O)NC2(c3ccccc3)CC2)CC1` [Compound 59, 1-[[1-[(1-Phenyl-1-cyclopropylamino)carbonyl]-4-piperidyl]methyl]-1H-2-methylimidazo[4,5-c]pyridine] gave a 50% inhibitory concentration (IC50) in assay [1] (Oryctolagus cuniculus) of 17 nM. In addition, in the assay on PAF-induced Hypotension, the ED50 is 0.021 mg/kg. For `CCOC[C@@H](NC(=O)N1CCC(Cn2c(C)nc3cnccc32)CC1)c1ccccc1` [Compound 60, (S)-1-[[1-[(2-Ethoxy-1-phenylethylamino)carbonyl]-4opiperidyl]methyl]-1H-2-methylimidazo[4,5-c]pyridine], in assay [1] (Oryctolagus cuniculus), inhibition was half-maximal at 17 nM (IC50). In the assay on PAF-induced Hypotension, the ED50 is 0.019 mg/kg.

In assay [1] (Oryctolagus cuniculus), `Cc1nc2cnccc2n1CC1CCN(S(=O)(=O)CC(C)(C)c2ccccc2)CC1` [Compound 61, 1-[[1-[(2-Methyl-2-phenylpropyl)sulfonyl]-4-piperidyl]methyl]-1H-2-methylimidazo[4,5-c]pyridine] had a half-maximal inhibitory concentration (IC50) of 6.2 nM.

Consider `Cc1nc2cnccc2n1CC1CCN(C(=O)OCC2(c3ccccc3)CC2)CC1` [Compound 70, 1-[[1-[[(1-Phenyl-1-cyclopropyl)methoxy]carbonyl]-4-piperidyl]methyl]-1H-2-methylimidazo[4,5-c]pyridine], for which inhibition in assay [1] (Oryctolagus cuniculus) was half-maximal at 34 nM (IC50). Besides, the ED50 with PAF-induced Hypotension worked out at 0.014 mg/kg.

As a reminder, the IC50 is the concentration needed to halve the response being measured. The low end stands for higher potency, the high end for lower potency.
